Entries after “also recorded” stand apart in the source; their conditions may differ.
Key:
[1] = test system: adjuvant arthritis; assay: Rat Adjuvant Assay; type: in vivo, Male Wistar rats; conditions: rats, oral once a day from day 11; for paw oedema / paw inflammation: doses 3, 10 and 30 mg/kg
Experimental: Male Wistar rats (180 to 200 g) were inoculated by subplantar injection of Freund's adjuvant (suspension of Mycobacterium butyricum in mineral oil) into the right paw at day 0. Sham inoculations were injected in the same way with 0.9% saline in matched Male Wistar rats. On day 2, animals were weighed. On days 3, 4, 7, 9 and 11, animals were weighed and both their right and left hind paws were measured by plethsymometry by submerging the paw up to the tibiotarsal joint. On day 11, rats with left hind paw volumes increased by 20% were selected for continuance in the study. On the same day, continuance rats were administered test article orally (10 ml/kg in distilled water) and from then on once a day until the completion of the study. Left and right hind paw volumes were measured on days 11, 14, 15, 16, 18 and 21.

[2] = test system: IL-10; assay: LPS Mouse Assay, serum IL-10; type: in vivo, Balb C ByJ mice; conditions: mice, i.p. or oral dosing 30 minutes before 1 mg/kg LPS i.p.; serum 2 hours after LPS, ELISA
Experimental: (§1) 7 week old Balb C ByJ mice (24-28 g) were administered, either by i.p. (5 ml/kg) or oral (10 ml/kg) administration, with vehicle or test article. 30 minutes later these animals were challenged with an intraperitoneal injection of 1 mg/kg LPS. 2 hours after LPS challenge blood samples were collected under light isoflurane anaesthesia into normal tubes by retro-orbital puncture. Samples were allowed to clot at room temperature and then spun at 6000 g for 3 min at 4° C. Serum was stored at −20° C. until use. Serum TNFα and IL-10 levels were analysed in duplicate by ELISA technique.

[3] = test system: TNFα; assay: LPS Mouse Assay, serum TNFα; type: in vivo, Balb C ByJ mice; conditions: mice, i.p. or oral dosing 30 minutes before 1 mg/kg LPS i.p.; serum 2 hours after LPS, ELISA
Experimental: as §1

[4] = test system: intraplantar carrageenan induced paw oedema; assay: Carrageenan Paw Assay; type: in vivo, male Wistar rats; conditions: rats, oral gavage half an hour before carrageenan; paw volume AUC 1-5 hours
Experimental: Fasted (18 hour) male Wistar rats (105-130 g) were weighed and a basal mercury plethysmometer reading was taken of the right hind paw by submerging the paw in the mercury up to the tibiotarsal joint. Subsequently, vehicles, reference items and test articles were administered by oral gavage (10 ml/kg). Half an hour after treatment, 0.1 ml of 2% carrageenan in 0.9% saline was injected into the subplanatar area of the right hind paw. The right paw was measured again with the plethysmometer at 1, 2, 3, 4 and 5 hours after carrageenan administration. Paw volume effects was expressed as the area under the curve for paw volume over time. Activity (inhibition of paw volume) was expressed as the % antiinflammatory activity versus the vehicle control.

[5] = test system: dextran sulphate induced colonic inflammation; assay: DSS Induced Colitis; type: in vivo, BDF1 male mice; conditions: mice, 3% dextran sulphate
Experimental: 8-10 week old BDF1 male mice (˜30 g) were housed in normal conditions. At the start of the study normal water was exchanged for a 3% dextran sulphate solution to induce colonic inflammation. Concurrently actarit and the positive control budesonide were administered rectally twice a day for 7 days. On day 8 the animal were sacrificed and the large intestine was removed. The lower two thirds were assessed for histological severity (scoring system; 1 mild to 4 severe). Mice were assessed for cumulative rectal bleeding scores, diarrheal scores and cumulative hemoccult measurements.

[6] = test system: SJL mouse EAE model; assay: Experimental Autoimmune Encephalitis; type: in vivo; conditions: SJL mice, orally 10 mg/kg once a day from the first day
Experimental: Experimental Autoimmune Encephalitis
Acclimatised SJL mice were sensitised by a subcutaneous injection proteolipid protein (PLP) in Freund's complete adjuvant (CFA) acting as an encephalitogenic inoculum. Innoculum was administered subcutaneously at a concentration of 125 μg PLP/300 μg CFA in a volume of 200 μl. 48 hours later, an intraperitoneal injection of pertussis toxin (PTX) was administered at a dose of 20 μg/kg, to increase blood-brain barrier permeability.
Compound (6) was administered from the first day of the experiment and once a day until the end, orally at a dose of 10 mg/kg. Copaxone was administered intraperitoneally at a dose of 25 mg/kg. Throughout the experiment, careful clinical examinations and body weights were taken to observe the well being of the animal.

[7] = test system: LPS-induced model of cytokine release; assay: LPS Mouse Assay, overall cytokine modulation; type: in vivo, Balb C ByJ mice; conditions: LPS-challenged mice, serum TNFα and IL-10
Experimental: as §1

Molecule | protective effects against adjuvant arthritis [1] | paw oedema / paw inflammation [1] | effect on IL-10 secretion [2] | effect on TNF alpha secretion induced by LPS [3] | anti-inflammatory effect against carrageenan induced paw oedema [4] | comparative effectiveness of (6) against (5) in DSS colitis [5] | effect on histological scores induced by oral dextran sulphate ([5]; lower dose) | effect on histological scores induced by oral dextran sulphate ([5]; top dose) | effect on second relapse of EAE [6] | cytokine modulatory activity [7]
(+)-(erythro)-2-tert-Butylamino-1-(3-chlorophenyl)propan-1-ol [Compound 6] | protective effects | inhibited paw inflammation at all doses | potentiated II-10 secretion | inhibited | dose-dependant anti-inflammatory effect | marginally more effective | large ameliorating effect | marked effect | completely ameliorated the second relapse | good cytokine modulatory profiles
(−)-(erythro)-2-tert-Butylamino-1-(3-chlorophenyl)propan-1-ol [Compound 5] | protective effects | reduced paw oedema at the top two doses | no effect on IL-10 levels | inhibited TNFα production | dose-dependant anti-inflammatory effect | – | – | marked effect | – | good cytokine modulatory profiles
(+/−)-(erythro)-2-tert-Butylamino-1-(3-chlorophenyl)propan-1-ol [Compound 8] | – | – | – | – | – | – | – | – | – | cytokine modulatory effects
CC(NC(C)(C)C)C(=O)c1cccc(Cl)c1 (stereo not shown) [Compound 3, 2-tert-Butylamino-1-(3-chlorophenyl)propan-1-one, reference compound] | – | – | not present | small effect | – | – | – | – | – | very weak cytokine modulatory activity
C[C@@H](NC(C)(C)C)[C@H](O)c1cccc(Cl)c1 (racemic) [Compound 7, (+/−)-(threo)-2-tert-Butylamino-1-(3-chlorophenyl)propan-1-ol] | – | – | – | inhibiting TNF alpha at all doses administrated; also recorded: small inhibitory effect on TNF alpha at the highest dose | – | – | – | – | – | –
